Test results published in patent US20160039802A1, “3-PYRIMIDIN-4-YL-OXAZOLIDIN-2-ONES AS INHIBITORS OF MUTANT IDH” (NOVARTIS AG, priority 2013, published 2016).

Tests used:
Mutant IDH1 R132H = biological target: T1, Mutant IDH1 R132H (Homo sapiens, UniProt O75874, R132H); test: Mutant IDH1 biochemical assay: LC-MS detection of 2-HG; details: mIDH R132H […], 5 uM NADPH, 100 uM alpha-KG, 45 minutes incubation; range where run multiple times; further: mIDH R132H 0.25 nM, 5 µM NADPH
T1 construct: His6 with PreScission site (N, cleaved yes); made in house; host or cells: E. coli Rosetta 2(DE3)
T1 sequence (O75874 whole entry R132H): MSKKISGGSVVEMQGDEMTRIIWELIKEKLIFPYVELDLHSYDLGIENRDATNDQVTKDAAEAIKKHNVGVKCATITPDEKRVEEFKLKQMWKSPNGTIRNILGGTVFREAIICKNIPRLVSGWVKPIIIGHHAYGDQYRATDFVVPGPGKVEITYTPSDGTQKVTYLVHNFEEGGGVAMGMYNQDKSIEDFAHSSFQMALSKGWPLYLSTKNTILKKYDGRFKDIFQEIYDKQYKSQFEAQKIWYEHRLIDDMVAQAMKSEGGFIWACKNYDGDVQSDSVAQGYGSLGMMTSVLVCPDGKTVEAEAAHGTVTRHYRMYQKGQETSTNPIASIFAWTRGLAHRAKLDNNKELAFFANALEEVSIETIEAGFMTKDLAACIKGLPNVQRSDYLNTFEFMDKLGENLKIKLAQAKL
Source text: Mutant IDH1 biochemical Sssay: LC-MS Detection of 2-HG.

IDH1 (R132H) mutant = biological target: T2, IDH1 (R132H) mutant (Homo sapiens, UniProt O75874, R132H); test: Fluorescence biochemical assay (NADPH oxidation); details: mIDH R132H 10 nM, 10 μM NADPH, 100 μM α-KG; range where run multiple times
T2 construct: His6 with PreScission site (N, cleaved yes); made in house; host or cells: E. coli Rosetta 2(DE3)
T2 sequence (O75874 whole entry R132H): as above
Procedure: The IDH1 (R132H) mutant catalyzes the reduced form of NADP+ (NADPH) and α-ketoglutarate (α-KG) to form nicotinamide adenine dinucleotide phosphate (NADP+) and R(−)-2-hydroxyglutarate (2HG). […] Reactions were monitored using the Perkin-Elmer Envision, Model 2101. […] The final reaction mixture contained 2.5% DMSO and test compounds with concentrations ranging 0.0000008-25 μM. The IDH1 (R132H) enzyme was used at a final concentration of 10 nM. Curve fitting for dose response […] determinations was done in the Helios module of the software package DAVID. The 4-parameter logistic model was used: y=min+((max−min)/1+(x/IC50)^shape)

| Structure (SMILES) | IC50 (Mutant IDH1 R132H) | IC50 (IDH1 (R132H) mutant) |
| --- | --- | --- |
| C[C@H](Nc1nccc(N2C(=O)OCC2(C)C2CC2)n1)c1ccc(F)cc1 (single isomer, unassigned) [Example 45] | 189 nM | 235 to 253 nM |
| C[C@H](Nc1nccc(N2C(=O)OCC2(C)C2CC2)n1)c1ccc(F)cc1 (single isomer, unassigned) [Example 46] | 791 nM | 793 to 1210 nM |
| CC(Nc1nccc(N2C(=O)OC[C@]2(C)C2CC2)n1)c1nc(-c2ccc(Cl)cc2)no1 (single isomer, unassigned) [Example 50] | 20.2 to 26 nM | 62.9 nM |
| Cc1cc(-c2cnc(C(C)Nc3nccc(N4C(=O)OC[C@]4(C)C4CC4)n3)nc2)ccc1F (single isomer, unassigned) [Example 53] | 22.7 to 35.4 nM | 36.2 nM |
| C[C@H](Nc1ncc(F)c(N2C(=O)OCC2(C)C2CC2)n1)c1ccc(CN2CCC(N(C)C)CC2)cc1F (single isomer, unassigned) [Example 57] | 868 nM | 290 nM |
| C[C@H](Nc1ncc(F)c(N2C(=O)OCC2(C)C2CC2)n1)c1ccc(CN2CCC(N(C)C)CC2)cc1F (single isomer, unassigned) [Example 58] | 2720 nM | 971 nM |
| C[C@H](Nc1ncc(F)c(N2C(=O)OCC2(C)C2CC2)n1)c1ccc(CN2CCC(C)(N)CC2)c(F)c1 (single isomer, unassigned) [Example 59] | 922 nM | 183 nM |
| C[C@H](Nc1ncc(F)c(N2C(=O)OCC2(C)C2CC2)n1)c1ccc(CN2CCC(C)(N)CC2)c(F)c1 (single isomer, unassigned) [Example 60] | 1520 nM | 584 nM |
| C[C@H](Nc1ncc(F)c(N2C(=O)OCC2(C)C2CC2)n1)c1ccc(CN2CCC(C)(N)CC2)cc1F (single isomer, unassigned) [Example 61] | 696 nM | 236 nM |
| C[C@H](Nc1ncc(F)c(N2C(=O)OCC2(C)C2CC2)n1)c1ccc(CN2CCC(C)(N)CC2)cc1F (single isomer, unassigned) [Example 62] | 1620 nM | 748 nM |
| CC(Nc1nccc(N2C(=O)OC[C@]2(C)C2CC2)n1)c1nc(-c2ccc(Cl)c(OC(F)(F)F)c2)no1 (single isomer, unassigned) [Example 63] | 2260 nM | 1890 to 2120 nM |
| CC(Nc1nccc(N2C(=O)OC[C@]2(C)C2CC2)n1)c1nc(-c2ccc(Cl)c(OC(F)(F)F)c2)no1 (single isomer, unassigned) [Example 64] | 25.2 nM | 10.3 to 42.4 nM |
| CC(Nc1nccc(N2C(=O)OC[C@@]2(C)C2CC2)n1)c1nc(-c2ccc(Cl)c(OC(F)(F)F)c2)no1 (single isomer, unassigned) [Example 65] | > 5000 nM | > 25000 nM |
| CC(Nc1nccc(N2C(=O)OC[C@@]2(C)C2CC2)n1)c1nc(-c2ccc(Cl)c(OC(F)(F)F)c2)no1 (single isomer, unassigned) [Example 66] | 85 nM | 34.3 to 72.5 nM |
| C[C@H](Nc1nc(Cl)cc(N2C(=O)OC[C@@H]2C2CC2)n1)c1nc(-c2ccc(Cl)cc2)no1 [Example 3, (S)-3-(6-chloro-2-((S)-1-(3-(4-chlorophenyl)-1,2,4-oxadiazol-5-yl)ethylamino)pyrimidin-4-yl)-4-cyclopropyloxazolidin-2-one] | < 22.9 nM | 26.9 nM |
| Cc1cc(N2C(=O)OC[C@@H]2C2CC2)nc(N[C@@H](C)c2cn(-c3ccc(Cl)cc3)cn2)n1 [Example 7, (S)-3-(2-(((S)-1-(1-(4-chlorophenyl)-1H-imidazol-4-yl)ethyl)amino)-6-methylpyrimidin-4-yl)-4-cyclopropyloxazolidin-2-one] | 8.45 nM | 17.4 nM |

| Structure (SMILES) | IC50 (Mutant IDH1 R132H) | IC50 (IDH1 (R132H) mutant) |
| --- | --- | --- |
| Cc1cc(N2C(=O)OC[C@@H]2C2CC2)nc(N[C@@H](C)c2nc(-c3ccc(Cl)cc3)no2)n1 [Example 8, (S)-3-(2-(((S)-1-(3-(4-chlorophenyl)-1,2,4-oxadiazol-5-yl)ethyl)amino)-6-methylpyrimidin-4-yl)-4-cyclopropyloxazolidin-2-one] | 47.1 nM | 71.3 nM |
| Cc1cc(N2C(=O)OC[C@@H]2C2CC2)nc(N[C@@H](C)c2cnc(-c3ccc(Cl)cc3)s2)n1 [Example 9, (S)-3-(2-(((S)-1-(2-(4-chlorophenyl)thiazol-5-yl)ethyl)amino)-6-methylpyrimidin-4-yl)-4-cyclopropyloxazolidin-2-one] | 43.7 nM | 105 nM |
| Cc1cc(N2C(=O)OC[C@@H]2C2CC2)nc(N[C@@H](C)c2cc(-c3ccc(Cl)cc3)on2)n1 [Example 10, (S)-3-(2-(((S)-1-(5-(4-chlorophenyl)isoxazol-3-yl)ethyl)amino)-6-methylpyrimidin-4-yl)-4-cyclopropyloxazolidin-2-one] | 22.8 nM | 71.6 nM |
| Cc1cc(N2C(=O)OC[C@@H]2C2CC2)nc(N[C@@H](C)c2cn(-c3ccc(Cl)cc3)nn2)n1 [Example 11, (S)-3-(2-(((S)-1-(1-(4-chlorophenyl)-1H-1,2,3-triazol-4-yl)ethyl)amino)-6-methylpyrimidin-4-yl)-4-cyclopropyloxazolidin-2-one] | 76.7 nM | 35.9 nM |
| C[C@H](Nc1nc(Cl)cc(N2C(=O)OC[C@@H]2C2CC2)n1)c1cc(F)c(-c2cnn(C)c2)cc1F [Example 18, (S)-3-(6-chloro-2-(((S)-1-(2,5-difluoro-4-(1-methyl-1H-pyrazol-4-yl)phenyl)ethyl)amino)pyrimidin-4-yl)-4-cyclopropyl oxazolidin-2-one] | 15.8 nM | 23.8 nM |
| C[C@H](Nc1nc(Cl)cc(N2C(=O)OC[C@@H]2C2CC2)n1)c1ccc(-c2cnn(C)c2)cc1F [Example 19, (S)-3-(6-chloro-2-(((S)-1-(2-fluoro-4-(1-methyl-1H-pyrazol-4-yl)phenyl)ethyl)amino)pyrimidin-4-yl)-4-cyclopropyloxazolidin-2-one] | 57.2 nM | 44.3 nM |
| C[C@H](Nc1nc(Cl)cc(N2C(=O)OC[C@@H]2C2CC2)n1)c1ccc(C(C)(C)F)cc1F [Example 20, (S)-3-(6-chloro-2-(((S)-1-(2-fluoro-4-(2-fluoropropan-2-yl)phenyl)ethyl)amino)pyrimidin-4-yl)-4-cyclopropyloxazolidin-2-one] | 83.9 nM | 218 nM |
| C[C@H](Nc1nc(Cl)cc(N2C(=O)OC[C@@H]2C2CC2)n1)c1cn(-c2ccc(F)cc2)cn1 [Example 27, (S)-3-(6-chloro-2-(((S)-1-(1-(4-fluorophenyl)-1H-imidazol-4-yl)ethyl)amino)pyrimidin-4-yl)-4-cyclopropyloxazolidin-2-one] | 20 nM | 7.27 nM |
| C[C@H](Nc1nccc(N2C(=O)OC[C@]2(C)C2CC2)n1)c1ccc(CN2CCC(N(C)C)CC2)c(F)c1 [Example 30, (S)-4-cyclopropyl-3-(2-(((S)-1-(4-((4-(dimethylamino)piperidin-1-yl)methyl)-3-fluorophenyl)ethyl)amino)pyrimidin-4-yl)-4-methyloxazolidin-2-one] | 211 to 271 nM | 122 to 172 nM |
| C[C@H](Nc1nccc(N2C(=O)OC[C@]2(C)C2CC2)n1)c1ccc(CN2CCC(N(C)C)CC2)cc1F [Example 33, (S)-4-cyclopropyl-3-(2-(((S)-1-(4-((4-(dimethylamino)piperidin-1-yl)methyl)-2-fluorophenyl)ethyl)amino)pyrimidin-4-yl)-4-methyloxazolidin-2-one] | 175 nM | 109 to 115 nM |
| C[C@H](Nc1nccc(N2C(=O)OC[C@]2(C)C2CC2)n1)c1ccc(CN2CCC(C)(O)CC2)cc1F [Example 34, (S)-4-cyclopropyl-3-(2-(((S)-1-(2-fluoro-4-((4-hydroxy-4-methylpiperidin-1-yl)methyl)phenyl)ethyl)amino)pyrimidin-4-yl)-4-methyloxazolidin-2-one] | 192 nM | 41.8 to 53.1 nM |
| C[C@H](Nc1ncc(F)c(N2C(=O)OCC2(C)C2CC2)n1)c1ccc(CN2CCC(N(C)C)CC2)c(F)c1 (stereo partly drawn) [Example 36, 4-cyclopropyl-3-(2-(((S)-1-(4-((4-(dimethylamino)piperidin-1-yl)methyl)-3-fluorophenyl)ethyl)amino)-5-fluoropyrimidin-4-yl)-4-methyloxazolidin-2-one] | 963 nM |  |
| C[C@H](Nc1nccc(N2C(=O)OC[C@]2(C)C2CC2)n1)c1ccc(CN2CCC(C)(N(C)C)CC2)c(F)c1 [Example 37, (S)-4-cyclopropyl-3-(2-(((S)-1-(4-((4-(dimethylamino)-4-methylpiperidin-1-yl)methyl)-3-fluorophenyl)ethyl)amino)pyrimidin-4-yl)-4-methyloxazolidin-2-one] | 28.6 nM |  |
| C[C@H](Nc1nccc(N2C(=O)OC[C@]2(C)C2CC2)n1)c1ccc(CN2CCC(N)(CO)CC2)c(F)c1 [Example 42, (S)-3-(2-(((S)-1-(4-((4-amino-4-(hydroxymethyl)piperidin-1-yl)methyl)-3-fluorophenyl)ethyl)amino)pyrimidin-4-yl)-4-cyclopropyl-4-methyloxazolidin-2-one] | 217 nM |  |
| C[C@H](Nc1nccc(N2C(=O)OC[C@]2(C)C2CC2)n1)c1ccc(CN2CCC(C)(N)CC2)c(F)c1 [Example 43, (S)-3-(2-(((S)-1-(4-((4-amino-4-methylpiperidin-1-yl)methyl)-3-fluorophenyl)ethyl)amino)pyrimidin-4-yl)-4-cyclopropyl-4-methyloxazolidin-2-one] | 151 nM |  |
